Earlier results in US9125936B2, “Ginger extract for the protection of stem cells” (Symrise AG, priority 2013, dated 2015).

Details: water (20° dH) at 20° C.; solid active agent

## Nc1nc2c(ncn2COCCO)c(=O)[nH]1 [Acyclovir, 2-Amino-1,9-dihydro-9-((2-hydroxyethoxy)methyl)-6H-Purin-6-one]
  solubility in water: less than 5 g/L
